Patent US20240269298A1, “PHOSPHONYL DERIVATIVE, AND COMPOSITION AND PHARMACEUTICAL APPLICATION THEREOF” (XIZANG HAISCO PHARMACEUTICAL CO., LTD., priority 2021, published 2024)
Where two headings read alike, the source gives them in different places.

Tests used:
[1] = system: NCI-H1975 (EGFR-L858R-T790M) cells; assay: Inhibitory activity on proliferation of NCI-H1975 (EGFR-L858R-T790M) cells (CTG, 72 h); type: cell-based; settings: Homo sapiens
Procedure, shortened: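 Cells plated at 1000/well (NCI-H1975, RPMI1640+10% FBS) or 3000/well (A431, DMEM+10% FBS), dosed next day with compounds (0.1% DMSO final) for 72 h at 37 °C, 5% CO2. Viability by CTG luminescence, normalised to vehicle control; IC50 from nonlinear-regression dose-survival curves.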

A431 (EGFR-WT) cells = assay: Inhibitory activity on proliferation of A431 (EGFR-WT) cells (CTG, 72 h); type: cell-based; settings: Homo sapiens, A-431
Description: NCI-H1975 (EGFR-L858R-T790M) and A431 (EGFR-WT) cells were purchased from ATCC and cultured in an incubator at 37° C. with 5% CO2, and the culture mediums were RPMI1640+10% FBS and DMEM+10% FBS, respectively. On the first day, NCI-H1975 (EGFR-L858R-T790M) and A431 (EGFR-WT) cells in the logarithmic phase were collected, and viable cells were counted using an automatic cell analyzer (countstar). The cell suspensions were adjusted with the culture mediums and plated on a 96-well cell culture plate at 1000 cells/well for NCI-H1975 (EGFR-L858R-T790M) cells and at 3000 cells/well for A431 cells. The next day, the culture mediums were aspirated, and 90 μL of fresh culture mediums and 10 μL of the compounds at different concentrations were added to each well, wherein the final concentration of DMSO in each well was 0.1%. The plate was cultured in the incubator at 37° C. with 5% CO2 for 72 hours. After 72 hours of drug treatment, 50 μL of CTG solution (promega, G7572), which was already pre-melted and equilibrated to room temperature, was added to each well, and the mixtures were uniformly mixed for 2 min using a microplate shaker. The plate was placed at room temperature for 10 min, and then […] signal values were measured using a microplate reader (PHERAstar FSX).
Surviving cells % was calculated based on Vsample/Vvehicle control×100%, wherein Vsample was the readout of the drug-treated group, and Vvehicle control was the average value of the vehicle control group. Using the origin 9.2 software and nonlinear regression model, S-shaped dose-survival curves were plotted, and IC50 values were calculated.

[2] = read-out: IC50 (value in brackets)

Compound | IC50 ([1]; read-out: IC50 (class symbol)) [nM] | IC50 [1, 2] [nM] | IC50 (A431 (EGFR-WT) cells) [nM]
COc1cc(N2CCN(c3ccc4c(c3)C(=O)N(C3CCC(=O)NC3=O)C4=O)CC2)c(-c2cnn(C)c2)cc1Nc1ncc(Cl)c(Nc2ccc(C3CC3)cc2P(C)(C)=O)n1 (stereo not shown) [Compound 167, 5-(4-(4-((5-chloro-4-((4-cyclopropyl-2-(dimethylphosphoryl)phenyl)amino)pyrimidin-2-yl)amino)-5-methoxy-2-(1-methyl-1H-pyrazol-4-yl)phenyl)piperazin-1-yl)-2-(2,6-dioxopiperidin-3-yl)isoindoline-1,3-dione] | – | – | ≥ 10000
COc1cc(N2CCC(CN3CCC4(CCCN(c5cc6c(cc5F)C(=O)N(C5CCC(=O)NC5=O)C6=O)C4)CC3)CC2)c(-c2cnn(C)c2)cc1Nc1ncc(Br)c(Nc2ccc(-c3ccccc3)cc2P(C)(C)=O)n1 (stereo not shown) [Compound 61, 5-(9-((1-(4-((5-bromo-4-((3-(dimethylphosphoryl)-[1,1′-biphenyl]-4-yl)amino)pyrimidin-2-yl)amino)-5-methoxy-2-(1-methyl-1H-pyrazol-4-yl)phenyl)piperidin-4-yl)methyl)-2,9-diazaspiro[5.5]undecan-2-yl)-2-(2,6-dioxopiperidin-3-yl)-6-fluoroisoindoline-1,3-dione] | 100 to 500 | 176 | ≥ 10000
COc1cc(N2CCC(C(=O)N3CCN(c4ccc5c(c4)C(=O)N(C4CCC(=O)NC4=O)C5=O)CC3)CC2)c(-c2cnn(C)c2)cc1Nc1ncc(Br)c(Nc2ccc(C3CC3)cc2P(C)(C)=O)n1 (stereo not shown) [Compound 145, 5-(4-(1-(4-((5-bromo-4-((4-cyclopropyl-2-(dimethylphosphoryl)phenyl)amino)pyrimidin-2-yl)amino)-5-methoxy-2-(1-methyl-1H-pyrazol-4-yl)phenyl)piperidine-4-carbonyl)piperazin-1-yl)-2-(2,6-dioxopiperidin-3-yl)isoindoline-1,3-dione] | < 100 | 69 | ≥ 10000
COc1cc(N2CCC3(CCC(N4CCN(c5ccc6c(c5)C(=O)N(C5CCC(=O)NC5=O)C6=O)CC4)CC3)CC2)c(-c2cnn(C)c2)cc1Nc1ncc(Br)c(Nc2ccc(-c3ccccc3)cc2P(C)(C)=O)n1 (stereo not shown) [Compound 82, 5-(4-(3-(4-((5-bromo-4-((3-(dimethylphosphoryl)-[1,1′-biphenyl]-4-yl)amino)pyrimidin-2-yl)amino)-5-methoxy-2-(1-methyl-1H-pyrazol-4-yl)phenyl)-3-azaspiro[5.5]undecan-9-yl)piperazin-1-yl)-2-(2,6-dioxopiperidin-3-yl)isoindoline-1,3-dione] | < 100 | 90 | ≥ 10000
COc1cc(N2CCC(F)(CN3CCN(c4ccc5c(c4)C(=O)N(C4CCC(=O)NC4=O)C5=O)CC3)CC2)c(-c2cnn(C)c2)cc1Nc1ncc(Br)c(Nc2ccc(C3CC3)cc2P(C)(C)=O)n1 (stereo not shown) [Compound 147, 5-(4-((1-(4-((5-bromo-4-((4-cyclopropyl-2-(dimethylphosphoryl)phenyl)amino)pyrimidin-2-yl)amino)-5-methoxy-2-(1-methyl-1H-pyrazol-4-yl)phenyl)-4-fluoropiperidin-4-yl)methyl)piperazin-1-yl)-2-(2,6-dioxopiperidin-3-yl)isoindoline-1,3-dione] | 100 to 500 | 103 | ≥ 10000
COc1cc(N2CCC(N3CCN(c4ccc(N5CCC(=O)NC5=O)cc4)CC3)CC2)c(-c2cnn(C)c2)cc1Nc1ncc(Cl)c(Nc2ccc(C3CC3)cc2P(C)(C)=O)n1 [Compound 133, 1-(4-(4-(1-(4-((5-chloro-4-((4-cyclopropyl-2-(dimethylphosphoryl)phenyl)amino)pyrimidin-2-yl)amino)-5-methoxy-2-(1-methyl-1H-pyrazol-4-yl)phenyl)piperidin-4-yl)piperazin-1-yl)phenyl)dihydropyrimidine-2,4(1H,3H)-dione] | – | – | ≥ 10000
COc1cc(N2CCC3(CCN(c4ccc5c(c4)C(=O)N(C4CCC(=O)NC4=O)C5=O)CC3)CC2)c(-c2cnn(C)c2)cc1Nc1ncc(Br)c(Nc2ccc(C3CC3)cc2P(C)(C)=O)n1 (stereo not shown) [Compound 165, 5-(9-(4-((5-bromo-4-((4-cyclopropyl-2-(dimethylphosphoryl)phenyl)amino)pyrimidin-2-yl)amino)-5-methoxy-2-(1-methyl-1H-pyrazol-4-yl)phenyl)-3,9-diazaspiro[5.5]undecan-3-yl)-2-(2,6-dioxopiperidin-3-yl)isoindoline-1,3-dione] | – | – | ≥ 10000
COc1cc(N2CCC(CN3CC4CN(c5ccc6c(c5)C(=O)N(C5CCC(=O)NC5=O)C6=O)CC4C3)CC2)c(C2CC2)cc1Nc1ncc(Br)c(Nc2ccc3nccnc3c2P(C)(C)=O)n1 (stereo not shown) [Compound 34, 5-(5-((1-(4-((5-bromo-4-((5-(dimethylphosphoryl)quinoxalin-6-yl)amino)pyrimidin-2-yl)amino)-2-cyclopropyl-5-methoxyphenyl)piperidin-4-yl)methyl)hexahydropyrrolo[3,4-c]pyrrol-2(1H)-yl)-2-(2,6-dioxopiperidin-3-yl)isoindoline-1,3-dione] | – | – | ≥ 10000

More lines, now with the values ahead:

IC50 ([1]; read-out: IC50 (class symbol)) [nM] | IC50 [1, 2] [nM] | IC50 (A431 (EGFR-WT) cells) [nM] | Compound
< 100 | 39 | ≥ 10000 | COc1cc(N2CCN(CC3CCN(c4ccc5c(c4)C(=O)N(C4CCC(=O)NC4=O)C5=O)CC3)CC2)c(-c2cnn(C)c2)cc1Nc1ncc(Cl)c(Nc2ccc(C3CC3)cc2P(C)(C)=O)n1 (stereo not shown) [Compound 126, 5-(4-((4-(4-((5-chloro-4-((4-cyclopropyl-2-(dimethylphosphoryl)phenyl)amino)pyrimidin-2-yl)amino)-5-methoxy-2-(1-methyl-1H-pyrazol-4-yl)phenyl)piperazin-1-yl)methyl)piperidin-1-yl)-2-(2,6-dioxopiperidin-3-yl)isoindoline-1,3-dione]
< 100 | 99 | ≥ 10000 | COc1cc(N2CCC(CN3CCN(c4ccc(C(=O)NC5CCC(=O)NC5=O)nc4)CC3)CC2)c(-c2cnn(C)c2)cc1Nc1ncc(Cl)c(Nc2ccc(-c3ccccc3)cc2P(C)(C)=O)n1 (stereo not shown) [Compound 66, 5-(4-((1-(4-((5-chloro-4-((3-(dimethylphosphoryl)-[1,1′-biphenyl]-4-yl)amino)pyrimidin-2-yl)amino)-5-methoxy-2-(1-methyl-1H-pyrazol-4-yl)phenyl)piperidin-4-yl)methyl)piperazin-1-yl)-N-(2,6-dioxopiperidin-3-yl)picolinamide]
< 100 | 49 | ≥ 10000 | COc1cc(N2CCC(CN3CCN(c4ccc5c(c4)C(=O)N([C@H]4CCC(=O)NC4=O)C5=O)CC3)CC2)c(-c2cnn(C)c2)cc1Nc1ncc(Cl)c(Nc2ccc(C3CC3)cc2P(C)(C)=O)n1 [Compound 172]
100 to 500 | 126 | ≥ 10000 | COc1cc(N2CCC3(CC2)CC(N2CCN(c4ccc5c(c4)C(=O)N(C4CCC(=O)NC4=O)C5=O)CC2)C3)c(-c2cnn(C)c2)cc1Nc1ncc(Br)c(Nc2ccc(-c3ccccc3)cc2P(C)(C)=O)n1 (stereo not shown) [Compound 83, 5-(4-(7-(4-((5-bromo-4-((3-(dimethylphosphoryl)-[1,1′-biphenyl]-4-yl)amino)pyrimidin-2-yl)amino)-5-methoxy-2-(1-methyl-1H-pyrazol-4-yl)phenyl)-7-azaspiro[3.5]nonan-2-yl)piperazin-1-yl)-2-(2,6-dioxopiperidin-3-yl)isoindoline-1,3-dione]
100 to 500 | 165 | ≥ 10000 | COc1cc(N2CCC(C3CCN(CC4CCN(c5ccc6c(c5)C(=O)N(C5CCC(=O)NC5=O)C6=O)CC4)CC3)CC2)c(-c2cnn(C)c2)cc1Nc1ncc(Br)c(Nc2ccc(-c3ccccc3)cc2P(C)(C)=O)n1 (stereo not shown) [Compound 36, 5-(4-((1′-(4-((5-bromo-4-((3-(dimethylphosphoryl)-[1,1′-biphenyl]-4-yl)amino)pyrimidin-2-yl)amino)-5-methoxy-2-(1-methyl-1H-pyrazol-4-yl)phenyl)-[4,4′-bipiperidin]-1-yl)methyl)piperidin-1-yl)-2-(2,6-dioxopiperidin-3-yl)isoindoline-1,3-dione]
– | – | ≥ 10000 | COc1cc(N2CCC(N3CCN(c4ccc(N5CCC(=O)NC5=O)cc4)CC3)CC2)c(-c2cnn(C)c2)cc1Nc1ncc(Cl)c(Nc2ccc(-c3ccccc3)cc2P(C)(C)=O)n1 [Compound 137, 1-(4-(4-(1-(4-((5-chloro-4-((3-(dimethylphosphoryl)-[1,1′-biphenyl]-4-yl)amino)pyrimidin-2-yl)amino)-5-methoxy-2-(1-methyl-1H-pyrazol-4-yl)phenyl)piperidin-4-yl)piperazin-1-yl)phenyl)dihydropyrimidine-2,4(1H,3H)-dione]
100 to 500 | 313 | – | COc1cc(N2CCN(Cc3cccc(NC4CCC(=O)NC4=O)c3)CC2)c(-c2cnn(C)c2)cc1Nc1ncc(Br)c(Nc2ccc(-c3ccccc3)cc2P(C)(C)=O)n1 (stereo not shown) [Compound 74, 3-((3-((4-(4-((5-bromo-4-((3-(dimethylphosphoryl)-[1,1′-biphenyl]-4-yl)amino)pyrimidin-2-yl)amino)-5-methoxy-2-(1-methyl-1H-pyrazol-4-yl)phenyl)piperazin-1-yl)methyl)phenyl)amino)piperidine-2,6-dione]
